Legend:
Settings in all cases: 72 h
Calu-3 [1] = test: relative viability EC50 (midpoint between 100% and the lowest measured viability); higher = less toxic
HepG2 [2] = test: as above
Caco-2 [3] = test: as above
Vero E6 [4] = test: as above
Calu-3 [5] = test: drug sensitivity score (DSS) for viability; higher = more toxic; extreme values may be limits of the assay
HepG2 [6] = test: as above
Caco-2 [7] = test: as above
Vero E6 [8] = test: as above
Calu-3 [9] = test: cell viability relative to DMSO; higher = less toxic
HepG2 [10] = test: as above
Caco-2 [11] = test: as above
Vero E6 [12] = test: as above
U2OS [13] = test: relative viability EC50 (midpoint between 100% and the lowest measured viability); higher = less toxic
U2OS [14] = test: drug sensitivity score (DSS) for viability; higher = more toxic; extreme values may be limits of the assay
U2OS [15] = test: cell viability relative to DMSO; higher = less toxic

Compound	relative viability EC50 (Calu-3 [1]) [µM]	relative viability EC50 (HepG2 [2]) [µM]	relative viability EC50 (Caco-2 [3]) [µM]	relative viability EC50 (Vero E6 [4]) [µM]	drug sensitivity score (Calu-3 [5])	drug sensitivity score (HepG2 [6])	drug sensitivity score (Caco-2 [7])	drug sensitivity score (Vero E6 [8])	cell viability (Calu-3 [9]; 1 nM) [%]	cell viability (Calu-3 [9]; 10 nM) [%]	cell viability (Calu-3 [9]; 100 nM) [%]	cell viability (Calu-3 [9]; 1000 nM) [%]	cell viability (Calu-3 [9]; 10000 nM) [%]	cell viability (HepG2 [10]; 1 nM) [%]	cell viability (HepG2 [10]; 10 nM) [%]	cell viability (HepG2 [10]; 100 nM) [%]	cell viability (HepG2 [10]; 1000 nM) [%]	cell viability (HepG2 [10]; 10000 nM) [%]	cell viability (Caco-2 [11]; 1 nM) [%]	cell viability (Caco-2 [11]; 10 nM) [%]	cell viability (Caco-2 [11]; 100 nM) [%]	cell viability (Caco-2 [11]; 1000 nM) [%]	cell viability (Caco-2 [11]; 10000 nM) [%]	cell viability (Vero E6 [12]; 1 nM) [%]	cell viability (Vero E6 [12]; 10 nM) [%]	cell viability (Vero E6 [12]; 100 nM) [%]	cell viability (Vero E6 [12]; 1000 nM) [%]	cell viability (Vero E6 [12]; 10000 nM) [%]	relative viability EC50 (U2OS [13]) [µM]	drug sensitivity score (U2OS [14])	cell viability (U2OS [15]; 1 nM) [%]	cell viability (U2OS [15]; 10 nM) [%]	cell viability (U2OS [15]; 100 nM) [%]	cell viability (U2OS [15]; 1000 nM) [%]	cell viability (U2OS [15]; 10000 nM) [%]
COc1ccn2ncc(-c3nc4[nH]nc(NC(=O)c5ccc(F)cc5)c4cc3F)c2c1 [CW-008]	> 10	> 10	> 10	> 10	0	0	0.6	0.1	109	107	113	97.8	97.2	109	102	95.2	101	93.1	99.1	92.5	91.2	89.6	87.7	93.6	98.5	99.4	97	89.1	–	–	–	–	–	–	–
CCc1c(O)cc(O)c(C(=O)c2ccc(OCCN3CCOCC3)c(OC)c2)c1CC(=O)N(CCOC)CCOC [KW-2478]	–	1.33	1.14	> 10	5.4	9.6	5.9	0	104	110	100	76.9	53.4	108	103	109	69.1	5.8	110	96.3	101	77.6	46.5	98.6	103	96.1	99.1	100	2.93	3	98.8	95.3	100	98.3	47.5
Cn1cnc([N+](=O)[O-])c1Sc1ncnc2[nH]cnc12 [azathioprine]	> 10	1.46	> 10	> 10	0	7.7	0	0.7	94.8	93.6	93.1	94.4	98.7	95.2	89.7	93	75.1	20	110	86.8	93	92.7	92.9	94.2	96.6	94.8	96	82.7	–	5.2	104	97.9	96.2	71.9	78.9
CCN(CC)CCNC(=O)c1cc(S(C)(=O)=O)ccc1OC [tiapride]	> 10	> 10	> 10	> 10	0	0	0	0	97.5	89.2	101	106	100	102	103	94.2	103	97.5	104	93.5	95.9	100	101	99.9	100	103	99.5	104	–	–	–	–	–	–	–
COc1ccc2[nH]c3c(-c4cccc5ccccc45)nccc3c2c1 [SP-141]	–	0.332	0.741	0.453	5.3	10.2	8.1	11.5	98.7	106	105	67.4	67.2	102	101	95.9	47.8	42.8	91.8	103	99.2	60	39.5	95.5	101	97.8	39.1	29.2	0.873	9.9	110	109	106	53.9	21.3
C[C@H](N)[C@H](O)c1ccc(O)c(O)c1 [levonordefrin]	> 10	> 10	> 10	> 10	0	0	0	0	102	96.8	98	104	100	105	105	97	96.8	93.9	97.8	89.7	96.8	88.6	93.8	109	109	103	108	91.9	–	–	–	–	–	–	–
CC(C)C[C@H](NC(=O)[C@@H]1CCCN1)C(=O)NCC(N)=O [prolylleucylglycinamide]	> 10	> 10	> 10	> 10	0	0	0	0	97.1	96.3	99.4	106	104	109	107	107	99.2	107	95	95.1	98.1	96	96.6	102	105	102	103	98.2	–	–	–	–	–	–	–
CC12CCC(C(Br)C1=O)C2(C)C (configuration not stated) [3-bromocamphor]	–	> 10	> 10	> 10	–	0	0	0	–	–	–	–	–	94.1	87.3	94.3	101	104	88.5	94.3	96.6	95.2	94.8	91.8	102	92.2	103	104	> 10	0	99.6	95.1	100	97.1	101
O=c1[nH]cnc2ccccc12 [4-HQN]	–	> 10	> 10	> 10	–	0	0	0	–	–	–	–	–	104	86.9	113	99.1	108	86.3	94.6	91	101	107	99.9	93.8	94.8	92.1	100	> 10	0	95.2	98.7	94.5	101	102
Cc1ccc2c(c1)=C(c1ccccc1)C(C1=NN(C(=O)CCC(=O)O)C(c3ccc(Br)cc3)C1)C(=O)N=2 (configuration not stated) [DQP-1105]	–	> 10	> 10	> 10	–	0	0	0	–	–	–	–	–	106	105	97.9	95.2	105	94.1	97.7	97.2	90.2	96.1	95.9	100	100	97.7	96.9	> 10	0	102	110	97.4	100	94.9
CN1C(=O)N(c2cc(Cl)cc(Cl)c2)C(=O)[C@]12CN(Cc1cc(C(=O)O)cs1)C[C@H]2c1ccc(C#N)cc1	–	> 10	> 10	> 10	–	0	0	0	–	–	–	–	–	101	112	109	98.1	104	109	94.8	100	103	93.7	98.3	101	95.5	96.6	105	> 10	0	104	97.8	101	103	100
C/C(=C\CNc1ncnc2[nH]cnc12)CO [zeatin]	–	> 10	> 10	> 10	–	0	0	0	–	–	–	–	–	94.7	92.9	108	102	110	94.1	104	88.1	92.5	101	95.7	99.4	97	100	107	> 10	0	96.8	99.4	95.4	98.9	102
CN1CCCN=C1/C=C/c1cccs1 [pyrantel-pamoate]	–	> 10	> 10	> 10	–	0	0	0	–	–	–	–	–	97.4	106	103	104	92.6	93.3	94.8	98.8	96	100	107	99.9	96.4	101	99.4	> 10	0	99.6	96.9	99.1	95.3	101
